# Laboratory results as given in patent US11925656B2, “Biological total joint replacement” (priority 2014, dated 2024).
# How the values were obtained:
# [1] = system: MMP-13; experiment: MMP-13 in synovium by ELISA, rabbit surgically induced knee arthritis; format: in vivo; conditions: vs untreated control, not statistically significant
# Excerpt: (§1) The study was approved by the Institutional Animal Care and Use Committee (IACUC) of Thomas D. Morris, Inc. 28 New Zeeland White rabbits were selected for the study. Six such were randomly assigned to one of four groups; prophylactic cyanidin-3-glycoside (C3G)(referred to figures as Cl 1-42), prophylactic protocatechuic acid (PCA)(referred to in figures as PCA 1-42), therapeutic C3G (referred to in figures as Cl 42-70), and therapeutic PCA (referred to in figures as PCA 42-70). There were four controls, two each to the prophylactic and therapeutic groups.
# (§2) The prophylactic groups were given PROC3G™ by Chromadex™ at a dose of 30 mg/kg of body weight of either C3G or PCA by mouth, 7 times per week for 42 days. The therapeutic groups' treatment was initiated on day 42 with a daily dose of PROC3G™ by Chromadex™ 7 times per week for 4 weeks. The dose of 30 mg of cyanidin-3-glucoside per kg of body weight calculates to be 0.177 millimoles per kg body weight. The dose of PCA was the same in terms of millimoles per kg body weight.
# (§3) The experimental rabbits underwent surgery with an intent to create a severe degenerative arthritis by cutting the medial collateral ligament, the anterior cruciate ligament and removing the medial meniscus. A partial thickness laceration was made longitudinally on the lateral femoral condyle for future assessment of potential for repair. The surgery was performed by two licensed veterinarians. One surgeon was very experienced. The other surgeon was a recent graduate.
# (§4) At necropsy, the synovial fluid was harvested percutaneously and upon arthrotomy. The synovium was harvested from posterior compartment. The patella and adjacent synovium was procured as a separate specimen as was the medial and lateral condyle.
# (§5) The synovial fluid and half of the synovium was frozen and sent to BioBoston Laboratory for chemical analysis. The other half of the synovium and bone was sent to McClinchery Histology in Stockbridge, Mich. for histological preparation and staining. Patellar slides were sent to BioBoston Contract Laboratories for histochemical staining and ICRS grading. Sample slides were examined for Lubricin at Myron Spector laboratory.
# (§6) Synovial Tissue (Synovium)—Detected by ELISA
# [2] = system: MMP3; experiment: MMP3 in synovial fluid by ELISA, rabbit arthritis model; format: in vivo; conditions: therapeutic groups, oral days 42-70, vs control
# Excerpt: as §1
# (§7) The prophylactic groups were given PROC3G™ by Chromadex™ at a dose of 30 mg/kg of body weight of either C3G or PCA by mouth, 7 times per week for 42 days. The therapeutic groups' treatment was initiated on day 42 with a daily dose of PROC3G™ by Chromadex™ 7 times per week for 4 weeks. The dose of 30 mg of cyanidin-3-glucoside per kg of body weight calculates to be 0.177 millimoles per kg body weight. The dose of PCA was the same in terms of millimoles per kg body weight. […]
# MMP3 is known as matrix metallopeptidase 3, or stromelysin 1 or progelatinase. […] See FIG. 2C. • Synovial Tissue (Synovium)—Detected by ELISA • MMP-3 levels were reduced in all four groups. See FIG. 9B. • Synovial Tissue (Synovium)—Gene Expression Level Detected by Real-Time PCR • MMP-3 gene expression was decreased in all groups. […]
# [3] = system: MMP-3; experiment: MMP-3 expression in cartilage, histochemical staining and scoring, rabbit arthritis model; format: in vivo
# Excerpt: as §1, §2, §3, §4, §5
# MMP3 is known as matrix metallopeptidase 3, or stromelysin 1 or progelatinase. Proteins of the matrix metalloproteinase (MMP) family are involved in the breakdown of 20 extracellular matrix in normal physiological processes, such as embryonic development, reproduction, and tissue remodeling, as well as in disease processes, such as arthritis and metastasis. […] See FIG. 2C. • Synovial Tissue (Synovium)—Detected by ELISA • MMP-3 levels were reduced in all four groups. See FIG. 9B. • Synovial Tissue (Synovium)—Gene Expression Level Detected by Real-Time PCR • MMP-3 gene expression was decreased in all groups. See FIG. 13A. • Histochemical Scoring Analysis
# [4] = system: TNF-alpha; experiment: TNF-alpha in synovial fluid by ELISA, rabbit arthritis model; format: in vivo; conditions: therapeutic groups, oral 4 weeks, vs control; not statistically significant
# Excerpt: as §1, §2
# (§8) The experimental rabbits underwent surgery with an intent to create a severe degenerative arthritis by cutting the medial collateral ligament, the anterior cruciate ligament and removing the medial meniscus. […]
# (§9) Synovial Fluid—Detected by ELISA
# [5] = system: ADAMTS-5; experiment: ADAMTS-5 in synovial fluid by ELISA, rabbit arthritis model; format: in vivo
# Excerpt: as §1, §2, §3, §4
# (§10) The synovial fluid and half of the synovium was frozen and sent to BioBoston Laboratory for chemical analysis. The other half of the synovium and bone was sent to McClinchery Histology in Stockbridge, Mich. for histological preparation and staining. […]
# as §9
# [6] = system: TIMP-1; experiment: TIMP-1 in synovial fluid by ELISA, rabbit arthritis model; format: in vivo; conditions: statistical significance not evident
# Excerpt: as §1, §2, §8, §9
# [7] = system: TGF-beta; experiment: TGF-beta in synovium by ELISA, rabbit arthritis model; format: in vivo; conditions: therapeutic group, oral days 42-70, vs control
# Excerpt: as §1
# The prophylactic groups were given PROC3G™ by Chromadex™ at a dose of 30 mg/kg of body weight of either C3G or PCA by mouth, 7 times per week for 42 days. The therapeutic groups' treatment was initiated on day 42 with a daily dose of PROC3G™ by Chromadex™ 7 times per week for 4 weeks. […]
# TGF-β induces apoptosis in numerous cell types. […] It is a type of cytokine which plays a role in immunity, cancer, bronchial asthma, heart disease, diabetes, hereditary hemorrhagic telangiectasia, Marfan syndrome, vascular Ehlers-Danlos syndrome Loeys-Dietz syndrome, Parkinson's disease, and AIDS. • Synovial Fluid—Detected by ELISA • TGF-beta was decreased in all groups. See FIG. 2B. • Synovial Tissue (Synovium)—Detected by ELISA • TGF-beta was increased in the C3G therapeutic group.
# [8] = system: lubricin; experiment: Lubricin in synovium by ELISA, rabbit arthritis model; format: in vivo
# Excerpt: as §1, §2, §3, §4, §10, §6
# [9] = system: IL-1 beta; experiment: IL-1 beta in synovium by ELISA, rabbit arthritis model; format: in vivo; conditions: therapeutic groups, oral days 42-70, vs control
# Excerpt: as §1, §7
# Interleukin-1 beta (IL-1p) also known as catabolic, is a cytokine protein. […] Increased production of IL-1B causes a number of different auto-inflammatory syndromes. • Synovial Fluid—Detected by ELISA • Levels of IL-1 beta were decreased in all groups. See FIG. 2A. • Synovial Tissue (Synovium)—Detected by ELISA
# [10] = system: MMP-1; experiment: MMP-1 in synovium by ELISA, rabbit arthritis model; format: in vivo; conditions: therapeutic group, oral days 42-70, vs control
# Excerpt: as §1, §2
# as §3, with “The surgery was performed by two licensed veterinarians. One surgeon was very experienced. The other surgeon was a recent graduate.” left out
# [11] = system: ADAMTS-5 gene expression; experiment: ADAMTS-5 gene expression in synovium by real-time PCR, rabbit arthritis model; format: in vivo; conditions: therapeutic groups, oral days 42-70, vs control
# Excerpt: as §1, §2, §8
# Synovial Tissue (Synovium)—Gene Expression Level Detected by Real-Time PCR
# [12] = system: lymphocytes; experiment: Number of lymphocytes in synovial fluid, rabbit arthritis model; format: in vivo; conditions: therapeutic groups, oral days 42-70, vs control
# Excerpt: as §1, §2, §3, §4
# In addition to testing for the increase or decrease of various factors and cytokines, tests were run to count the number of white blood cells, including polymorphonuclear leukocytes (PMN), macrophages (Mac) and lymphocytes (Lym). […]
# [13] = system: IGF-1; experiment: IGF-1 in plasma, rabbit arthritis model; format: in vivo; conditions: control group 25 PG/ML
# Excerpt: as §1, §2, §3
# Blood testing was performed prior to necropsy on C3G, PCA, glucose, MMP-3 and IGF-1 to assess any systemic effects.
# [14] = system: C-reactive protein (CRP); experiment: C-reactive protein (CRP) in plasma after knee surgery; format: in vivo, rabbit
# Experimental: C-reactive protein (CRP) is a protein found in the blood plasma, the levels of which rise in response to inflammation (i.e., C-reactive protein is an acute-phase protein). Its physiological role is to bind to phosphocholine expressed on the surface of dead or dying cells (and some types of bacteria) in order to activate the complement system via the C1Q complex. CRP rises within two hours of the onset of inflammation, up to a 50,000-fold, and peaks at 48 hours. […] CRP is thus a screen for inflammation.
# Knee surgery was performed to create a severe irreparable degenerative knee joint, which in turn elevated the CRP in the plasma to average of […]. A historical normal amount of CRP is 3.15 micrograms/mL. See Sun H, et al., Am J Pathol. October 2005; 167(4): 1139-1148. Rabbit CRP levels are close to the mean values of healthy middle-aged humans (2.82 mg/L) reported in the literature. See Ockene I S, et al., Clin Chem. 2001; 47:444-450.
# The controls in the study were animals that had surgery and received no treatment. The prophylaxis test groups had the surgery and received 6 weeks of oral C-3-G or PCA 7 times per week as described in example 1. The therapeutic treatment group had surgery, received no treatment for 41 days and then at day 42 received oral C-3-G or PCA 7 times per week as described in example 1.
# [15] = prophylactic groups, oral days 1-42
# [16] = prophylactic groups, oral days 1-42, vs control
# [17] = therapeutic groups, oral days 42-70
# [18] = therapeutic groups, oral days 42-70, vs control
structure (smiles),measurement,setting,value
"OC[C@H]1O[C@@H](Oc2cc3c(O)cc(O)cc3[o+]c2-c2ccc(O)c(O)c2)[C@H](O)[C@@H](O)[C@@H]1O [C3G, cyanidin-3-glucoside, reference compound]",MMP-13 levels in synovium,"[1]; prophylactic groups, oral 7 times per week days 1-42 (C3G 30 mg/kg, PCA 26.4 mg/kg)",increased slightly
same,MMP-13 levels in synovium,"[1]; therapeutic groups, oral 7 times per week days 42-70 (C3G 30 mg/kg, PCA 26.4 mg/kg)",slightly decreased
same,MMP3 in synovial fluid,[2],decreased
same,histochemical staining for the presence of MMP-3 in cartilage,[3]; [15],very minimal positive stain
same,MMP-3 expression in cartilage,[3]; [16],reduced
same,histochemical staining for the presence of MMP-3 in cartilage,[3]; [17],no staining
same,MMP-3 expression in cartilage,[3]; [18],reduced
same,TNF-alpha levels in synovial fluid,[4],slight increase
same,ADAMTS-5 in synovial fluid,[5]; [16],decreased
same,ADAMTS-5 in synovial fluid,[5]; [18],decreased
same,TIMP-1 levels in synovial fluid,[6]; [16],elevated
same,TIMP-1 levels in synovial fluid,[6]; [18],elevated
same,TGF-beta in synovium,[7],increased
same,lubricin in synovium,[8]; [16],increased
same,lubricin in synovium,[8]; [18],increased
same,levels of IL-1 beta in synovium,[9],decreased
same,MMP-1 in synovium,[10],decrease
same,ADAMTS-5 gene expression in synovium,[11],decreased
same,number of lymphocytes in synovial fluid,[12],decreased
same,IGF-1 in the plasma,[13]; [15],15.8 pg/mL
same,IGF-1 in the plasma,[13]; [17],28.5 pg/mL
same,"CRP, an indicator of inflammation",[14]; given by oral route immediately after injury,kept to normal levels
same,plasma CRP level,"[14]; prophylaxis test group, 6 weeks oral treatment from surgery, untreated control at 42 days 8.8 mg/mL",3.1 micrograms/mL
same,plasma CRP level,"[14]; therapeutic group, no treatment for 6 weeks after surgery, then 4 weeks oral treatment",28.3 mg/mL
